≈ marks a conversion by molar mass, not a printed value. Like-named read-outs stand apart in the source and are kept apart here.
What was measured:
[1] = test system: Mycobacterium tuberculosis H37Ra; experiment: Antimycobacterial screening (microdilution broth, resazurin) against M. tuberculosis H37Ra; format: cell-based; details: for MIC: Mycobacterium tuberculosis; for MIC values for standards, range, M. tuberculosis: range of MIC of the standards in the assay
[2] = test system: Mycobacterium smegmatis DSM 43465 (ATCC 607); experiment: Antimycobacterial screening (microdilution broth, resazurin) against M. smegmatis; format: cell-based; details: for MIC: Mycolicibacterium smegmatis, read-out: MIC M. smegmatis; for MIC values for standards, range, M. smegmatis: range of MIC of the standards in the assay
[3] = test system: Mycobacterium aurum DSM 43999 (ATCC 23366); experiment: Antimycobacterial screening (microdilution broth, resazurin) against M. aurum; format: cell-based; details: for MIC: Mycolicibacterium aurum, read-out: MIC M. aurum; for MIC values for standards, range, M. aurum: range of MIC of the standards in the assay
HepG2 cells = experiment: cells; format: cell-based, Human; details: for IC50: Homo sapiens, HepG2, MTT, 24 h incubation
[4] = test system: M. tuberculosis H37Ra, M. aurum and M. smegmatis; experiment: Antimycobacterial screening, MICs stated over all studied strains; format: cell-based, Mycobacterium; details: range over M. tuberculosis H37Ra, M. aurum, M. smegmatis; read-out: MICs against all studied strains
[5] = H37RA, read-out: MIC Mtb H37Ra (µM)
[6] = M. tuberculosis H37Ra, resazurin added after 120 h, read-out: MIC Mtb H37Ra

SMILES | MIC [1, 5] [µM] | MIC [1, 6] [µg/mL] | MIC ([2]; 48 h) [µg/mL] | MIC ([3]; 72 h) [µg/mL] | SI (selectivity index) (HepG2 cells) | IC50 (HepG2 cells) [µM] | MIC [4] [µg/mL] | MIC ([1]; H37RA, 120 h, read-out: MIC Mtb H37Ra) [µg/mL] | MIC values for standards, range, M. tuberculosis [1] [µg/mL] | MIC ([2]; resazurin added after 48 h) [µg/mL] | MIC values for standards, range, M. smegmatis [2] [µg/mL] | MIC values for standards, range, M. aurum [3] [µg/mL] | MIC ([3]; resazurin added after 72 h) [µg/mL]
COc1ccc2c3c1O[C@H]1C[C@@H](OC(=O)c4cccc5ccccc45)C=C[C@@]31CCN(C)C2 [1q, 6-O-(1-naphthoyl)galanthamine] | 13.1 | 6.25 | 7.81 (≈ 17.7 µM) | 7.81 (≈ 17.7 µM) | 3.21 | 42.1 ± 4.1 | 6.25 to 7.81 (≈ 14.2 to 17.7 µM) |  |  |  |  |  | 
CCCCc1ccc(C(=O)OC2C=C3C4CN(Cc5cc6c(cc54)OCO6)C3CC2OC)cc1 (centres unmarked) [3d, 2-O-(4-butylbenzoyl)-3-O-methylpancracine] | 7.9 | 3.91 | 7.81 (≈ 16.9 µM) | 7.81 (≈ 16.9 µM) | 2.59 | 20.5 ± 0.7 |  |  |  |  |  |  | 
COc1ccc2c3c1O[C@H]1C[C@@H](OC(=O)c4ccccc4C)C=C[C@@]31CCN(C)C2 [1b, 6-O-(2-methylbenzoyl)galanthamine] | 35.4 | 15.6 | 31.2 (≈ 77.1 µM) | 31.2 (≈ 77.1 µM) |  |  |  |  |  |  |  |  | 
COc1ccc2c3c1O[C@H]1C[C@@H](OC(=O)c4ccc(C)cc4)C=C[C@@]31CCN(C)C2 [1d, 6-O-(4-methylbenzoyl)galanthamine] | 35.4 | 15.6 | 31.2 (≈ 77.1 µM) | 15.6 (≈ 38.5 µM) |  |  |  |  |  |  |  |  | 
NNC(=O)c1ccncc1 [isoniazid, reference compound] | 1.82 |  |  | 3.91 (≈ 28.5 µM) |  |  |  | 0.25 | 0.125 to 0.25 | 31.2 (≈ 228 µM) | 7.81 to 15.625 | 1.95 to 3.91 | 
COC1CC2C(=CC1OC(=O)c1ccc(C(C)(C)C)cc1)C1CN2Cc2cc3c(cc21)OCO3 (centres unmarked) [3c, 2-O-(4-tert-butylbenzoyl)-3-O-methylpancracine] | 7.9 | 3.91 | 7.81 (≈ 16.9 µM) | 7.81 (≈ 16.9 µM) | 3.08 | 24.3 ± 2.4 |  |  |  |  |  |  | 
COc1cc2c(cc1OC)[C@@]13C=C[C@@H](OC(=O)c4cccc5ccccc45)C[C@@H]1N(CC3)C2 [5b, 3-O-(1-naphthoyl)maritidine] | 16.3 | 7.81 | 15.6 (≈ 35.4 µM) | 7.81 (≈ 17.7 µM) | 1.03 | 16.8 ± 7.1 | 3.91 to 15.6 (≈ 8.86 to 35.4 µM) |  |  |  |  |  | 
COc1cc2c(cc1OC)[C@@]13C=C[C@@H](O)C[C@@H]1N(CC3)C2 [maritidine (5), maritidine] | ≥ 1740 | ≥ 500 | ≥ 500 | ≥ 500 |  |  |  |  |  |  |  |  | 
COC1C=CC23c4cc5c(cc4CN(CC2O)C3C1)OCO5 (centres unmarked) [haemanthamine (2), haemanthamine] | ≥ 1660 | ≥ 500 | ≥ 500 | ≥ 500 |  |  |  |  |  |  |  |  | 
COc1ccc2c3c1O[C@H]1C[C@@H](OC(=O)c4c(C)cc(C)cc4C)C=C[C@@]31CCN(C)C2 [1g, 6-O-(2,4,6-trimethylbenzoyl)galanthamine] | 18 | 7.81 | 31.2 (≈ 72.1 µM) | 15.6 (≈ 36 µM) | 0.77 | 13.9 ± 0.8 |  |  |  |  |  |  | 
O[C@@H]1C=C[C@]23CCN(Cc4cc5c(cc42)OCO5)[C@H]3C1 [vittatine (4), vittatine] | ≥ 1840 | ≥ 500 | ≥ 500 | 250 (≈ 921 µM) |  |  |  |  |  |  |  |  | 
COC1CC2C(=CC1OC(=O)c1cc(C)cc(C)c1)C1CN2Cc2cc3c(cc21)OCO3 (centres unmarked) [3a, 2-O-(3,5-dimethylbenzoyl)-3-O-methylpancracine] | 16.6 | 7.81 | 15.6 (≈ 36 µM) | 7.81 (≈ 18 µM) | 2.45 | 40.6 ± 7.6 |  |  |  |  |  |  | 
COC1CC2C(=CC1OC(=O)c1c(C)cc(C)cc1C)C1CN2Cc2cc3c(cc21)OCO3 (centres unmarked) [3b, 2-O-(2,4,6-trimethylbenzoyl)-3-O-methylpancracine] | 16.1 | 7.81 | 15.6 (≈ 34.9 µM) | 7.81 (≈ 17.5 µM) | 1.94 | 31.2 ± 5.4 |  |  |  |  |  |  | 
O=C(O)c1cn(C2CC2)c2cc(N3CCNCC3)c(F)cc2c1=O [ciprofloxacin, reference compound] | 0.75 | 0.25 |  |  |  |  |  |  | 0.125 to 0.25 | 0.125 (≈ 0.377 µM) | 0.0625 to 0.125 | 0.0078 to 0.0156 | 0.0156 (≈ 0.0472 µM)
O[C@H]1[C@H]2c3cc4c(cc3CN3CCC(=C[C@@H]1O)[C@H]23)OCO4 [lycorine (7), lycorine] | ≥ 1740 | ≥ 500 | ≥ 500 | ≥ 500 |  |  |  |  |  |  |  |  | 
COc1cc2c(cc1OC)[C@@H](O)O[C@@H]1CC=C3CCN(C)[C@H]3[C@H]21 [lycorenine (9), lycorenine] | ≥ 394 | ≥ 125 | ≥ 125 | ≥ 125 |  |  |  |  |  |  |  |  | 
COc1ccc2c3c1O[C@H]1C[C@@H](OC(=O)c4cc(C)cc(C)c4)C=C[C@@]31CCN(C)C2 [1f, 6-O-(3,5-dimethylbenzoyl)galanthamine] | 17.1 | 7.81 | 7.81 (≈ 18.6 µM) | 7.81 (≈ 18.6 µM) | 1.03 | 17.6 ± 4.7 |  |  |  |  |  |  | 

From paper PMC8512562, “Semisynthetic Derivatives of Selected Amaryllidaceae Alkaloids as a New Class of Antimycobacterial Agents” (Molecules, 2021)
